# Assay results published in US10738028B2, “Spiro three-membered ring, spiro five-membered ring peptide deformylase inhibitor and use thereof in antibacteria and anti-tumor” (priority 2016, dated 2020).
# Tests used:
# Type in all cases: cell-based
# [1] = test system: Escherichia coli (including ESBLs, non-ESBLs); test: MIC, two-fold agar dilution (CLSI), clinical isolates; settings: for Anti-bacterial activity (MIC), strain ECO+ 15-1: clinical isolate ECO+ 15-1; for Anti-bacterial activity (MIC), strain ECO+ 15-2: clinical isolate ECO+ 15-2; for Anti-bacterial activity (MIC), strain ECO+ 15-3: clinical isolate ECO+ 15-3; for Anti-bacterial activity (MIC), strain ECO+ 15-4: clinical isolate ECO+ 15-4; for Anti-bacterial activity (MIC), strain ECO− 15-1: clinical isolate ECO− 15-1; for Anti-bacterial activity (MIC), strain ECO− 15-2: clinical isolate ECO− 15-2; for Anti-bacterial activity (MIC), strain ECO− 15-3: clinical isolate ECO− 15-3; for Anti-bacterial activity (MIC), strain ECO− 15-4: clinical isolate ECO− 15-4
# In short: (§1)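 MIC values come from two-fold agar dilution run per CLSI antimicrobial susceptibility testing procedure.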
# [2] = test system: methicillin-resistant Staphylococcus aureus (MRSA); test: as above; settings: for Anti-bacterial activity (MIC), strain MRSA 15-1: clinical isolate MRSA 15-1; for Anti-bacterial activity (MIC), strain MRSA 15-2: clinical isolate MRSA 15-2; for Anti-bacterial activity (MIC), strain MRSA 15-3: clinical isolate MRSA 15-3; for Anti-bacterial activity (MIC), strain MRSA 15-4: clinical isolate MRSA 15-4
# In short: as §1
# [3] = test system: Enterococcus faecium (EFM); test: as above; settings: for Anti-bacterial activity (MIC), strain EFM 15-1: clinical isolate EFM 15-1; for Anti-bacterial activity (MIC), strain EFM 15-2: clinical isolate EFM 15-2; for Anti-bacterial activity (MIC), strain EFM 15-3: clinical isolate EFM 15-3; for Anti-bacterial activity (MIC), strain EFM 15-4: clinical isolate EFM 15-4; for Anti-bacterial activity (MIC), strain EFM 15-5: clinical isolate EFM 15-5; for Anti-bacterial activity (MIC), strain EFM 15-6: clinical isolate EFM 15-6
# In short: as §1
# [4] = test system: Enterococcus faecalis (EFA); test: as above; settings: for Anti-bacterial activity (MIC), strain EFA 15-1: clinical isolate EFA 15-1; for Anti-bacterial activity (MIC), strain EFA 15-2: clinical isolate EFA 15-2; for Anti-bacterial activity (MIC), strain EFA 15-3: clinical isolate EFA 15-3; for Anti-bacterial activity (MIC), strain EFA 15-4: clinical isolate EFA 15-4; for Anti-bacterial activity (MIC), strain EFA 15-5: clinical isolate EFA 15-5; for Anti-bacterial activity (MIC), strain EFA 15-6: clinical isolate EFA 15-6; for Anti-bacterial activity (MIC), strain EFA 15-9: clinical isolate EFA 15-9
# In short: as §1
# [5] = test system: methicillin-sensitive Staphylococcus aureus (MSSA); test: as above; settings: for Anti-bacterial activity (MIC), strain MSSA 15-3: clinical isolate MSSA 15-3; for Anti-bacterial activity (MIC), strain MSSA 15-4: clinical isolate MSSA 15-4; for Anti-bacterial activity (MIC), strain MSSA 15-5: clinical isolate MSSA 15-5; for Anti-bacterial activity (MIC), strain MSSA 15-6: clinical isolate MSSA 15-6
# In short: as §1
# [6] = test system: methicillin-resistant Staphylococcus epidermidis (MRSE); test: as above; settings: for Anti-bacterial activity (MIC), strain MRSE 15-1: clinical isolate MRSE 15-1; for Anti-bacterial activity (MIC), strain MRSE 15-2: clinical isolate MRSE 15-2; for Anti-bacterial activity (MIC), strain MRSE 15-3: clinical isolate MRSE 15-3; for Anti-bacterial activity (MIC), strain MRSE 15-7: clinical isolate MRSE 15-7
# In short: as §1
# [7] = test system: Moraxella catarrhalis (BCA); test: as above; settings: for Anti-bacterial activity (MIC), strain BCA 14-1: clinical isolate BCA 14-1; for Anti-bacterial activity (MIC), strain BCA 14-4: clinical isolate BCA 14-4; for Anti-bacterial activity (MIC), strain BCA 14-5: clinical isolate BCA 14-5; for Anti-bacterial activity (MIC), strain BCA 14-6: clinical isolate BCA 14-6; for Anti-bacterial activity (MIC), strain BCA 14-7: clinical isolate BCA 14-7; for Anti-bacterial activity (MIC), strain BCA 14-8: clinical isolate BCA 14-8; for Anti-bacterial activity (MIC), strain BCA 14-10: clinical isolate BCA 14-10
# In short: as §1
# [8] = test system: Streptococcus pneoumoniae (SPN); test: as above; settings: for Anti-bacterial activity (MIC), strain SPN 16-2: clinical isolate SPN 16-2; for Anti-bacterial activity (MIC), strain SPN 16-4: clinical isolate SPN 16-4
# In short: as §1
# [9] = test system: methicillin-sensitive Staphylococcus epidermidis (MSSE); test: as above; settings: for Anti-bacterial activity (MIC), strain MSSE 15-3: clinical isolate MSSE 15-3; for Anti-bacterial activity (MIC), strain MSSE 15-4: clinical isolate MSSE 15-4; for Anti-bacterial activity (MIC), strain MSSE 15-5: clinical isolate MSSE 15-5; for Anti-bacterial activity (MIC), strain MSSE 15-6: clinical isolate MSSE 15-6
# In short: as §1
# [10] = test system: HCT-116 colorectal cancer cell line; test: CCK-8 proliferation inhibition; settings: Homo sapiens, HCT-116, 72 h, concentration of 30 μM; 72 hours; CCK-8; read-out: HCT116 inhibition rate/%
# In short: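 Proliferation over 72 hours of compound treatment was measured with CCK-8 against a 1‰ DMSO control.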
compound,measurement,setting,value
"CCCC[C@H](CC(=O)NO)C(=O)N1CC2(CC2)C[C@@H]1c1nc2ccccc2[nH]1 [Example 59, (R)-3-((R)-6-(1H-benzimidazol-2-yl)-5-azaspiro[2.4]heptane-5-carbonyl)-N-hydroxyheptanamide]","Anti-bacterial activity (MIC), strain ECO+ 15-1",[1],> 32 µg/mL
same,"Anti-bacterial activity (MIC), strain ECO+ 15-2",[1],> 32 µg/mL
same,"Anti-bacterial activity (MIC), strain ECO+ 15-3",[1],> 32 µg/mL
same,"Anti-bacterial activity (MIC), strain ECO+ 15-4",[1],> 32 µg/mL
same,"Anti-bacterial activity (MIC), strain ECO− 15-1",[1],> 32 µg/mL
same,"Anti-bacterial activity (MIC), strain ECO− 15-2",[1],> 32 µg/mL
same,"Anti-bacterial activity (MIC), strain ECO− 15-3",[1],> 32 µg/mL
same,"Anti-bacterial activity (MIC), strain ECO− 15-4",[1],> 32 µg/mL
same,"Anti-bacterial activity (MIC), strain MRSA 15-1",[2],> 32 µg/mL
same,"Anti-bacterial activity (MIC), strain MRSA 15-2",[2],> 32 µg/mL
same,"Anti-bacterial activity (MIC), strain MRSA 15-3",[2],> 32 µg/mL
same,"Anti-bacterial activity (MIC), strain MRSA 15-4",[2],> 32 µg/mL
same,"Anti-bacterial activity (MIC), strain EFM 15-1",[3],> 32 µg/mL
same,"Anti-bacterial activity (MIC), strain EFM 15-2",[3],> 32 µg/mL
same,"Anti-bacterial activity (MIC), strain EFM 15-3",[3],> 32 µg/mL
same,"Anti-bacterial activity (MIC), strain EFM 15-4",[3],> 32 µg/mL
same,"Anti-bacterial activity (MIC), strain EFM 15-5",[3],16 µg/mL
same,"Anti-bacterial activity (MIC), strain EFM 15-6",[3],16 µg/mL
same,"Anti-bacterial activity (MIC), strain EFA 15-1",[4],> 32 µg/mL
same,"Anti-bacterial activity (MIC), strain EFA 15-2",[4],> 32 µg/mL
same,"Anti-bacterial activity (MIC), strain EFA 15-3",[4],> 32 µg/mL
same,"Anti-bacterial activity (MIC), strain EFA 15-4",[4],> 32 µg/mL
same,"Anti-bacterial activity (MIC), strain EFA 15-5",[4],> 32 µg/mL
same,"Anti-bacterial activity (MIC), strain EFA 15-6",[4],> 32 µg/mL
same,"Anti-bacterial activity (MIC), strain EFA 15-9",[4],> 32 µg/mL
same,"Anti-bacterial activity (MIC), strain MSSA 15-3",[5],> 32 µg/mL
same,"Anti-bacterial activity (MIC), strain MSSA 15-4",[5],> 32 µg/mL
same,"Anti-bacterial activity (MIC), strain MSSA 15-5",[5],> 32 µg/mL
same,"Anti-bacterial activity (MIC), strain MSSA 15-6",[5],> 32 µg/mL
same,"Anti-bacterial activity (MIC), strain MRSE 15-1",[6],> 32 µg/mL
same,"Anti-bacterial activity (MIC), strain MRSE 15-2",[6],> 32 µg/mL
same,"Anti-bacterial activity (MIC), strain MRSE 15-3",[6],> 32 µg/mL
same,"Anti-bacterial activity (MIC), strain MRSE 15-7",[6],> 32 µg/mL
same,"Anti-bacterial activity (MIC), strain BCA 14-1",[7],> 32 µg/mL
same,"Anti-bacterial activity (MIC), strain BCA 14-4",[7],> 32 µg/mL
same,"Anti-bacterial activity (MIC), strain BCA 14-5",[7],16 µg/mL
same,"Anti-bacterial activity (MIC), strain BCA 14-6",[7],> 32 µg/mL
same,"Anti-bacterial activity (MIC), strain BCA 14-7",[7],> 32 µg/mL
same,"Anti-bacterial activity (MIC), strain BCA 14-8",[7],> 32 µg/mL
same,"Anti-bacterial activity (MIC), strain BCA 14-10",[7],> 32 µg/mL
same,"Anti-bacterial activity (MIC), strain SPN 16-2",[8],8 µg/mL
same,"Anti-bacterial activity (MIC), strain SPN 16-4",[8],8 µg/mL
same,"Anti-bacterial activity (MIC), strain MSSE 15-3",[9],> 32 µg/mL
same,"Anti-bacterial activity (MIC), strain MSSE 15-4",[9],> 32 µg/mL
same,"Anti-bacterial activity (MIC), strain MSSE 15-5",[9],> 32 µg/mL
same,"Anti-bacterial activity (MIC), strain MSSE 15-6",[9],> 32 µg/mL
same,inhibition at 30 µM,[10],12%
"CCCC[C@H](CC(=O)NO)C(=O)N1CC2(CC2)C[C@H]1C(=O)Nc1cccnn1 [Example 48, (S)-5-((R)-2-(2-(hydroxyamino)-2-oxoethyl)hexanoyl)-N-(pyridazin-3-yl)-5-azaspiro[2.4]heptane-6-amide]","Anti-bacterial activity (MIC), strain ECO+ 15-1",[1],8 µg/mL
same,"Anti-bacterial activity (MIC), strain ECO+ 15-2",[1],> 32 µg/mL
same,"Anti-bacterial activity (MIC), strain ECO+ 15-3",[1],32 µg/mL
same,"Anti-bacterial activity (MIC), strain ECO+ 15-4",[1],32 µg/mL
same,"Anti-bacterial activity (MIC), strain ECO− 15-1",[1],> 32 µg/mL
same,"Anti-bacterial activity (MIC), strain ECO− 15-2",[1],> 32 µg/mL
same,"Anti-bacterial activity (MIC), strain ECO− 15-3",[1],> 32 µg/mL
same,"Anti-bacterial activity (MIC), strain ECO− 15-4",[1],> 32 µg/mL
same,"Anti-bacterial activity (MIC), strain MRSA 15-1",[2],2 µg/mL
same,"Anti-bacterial activity (MIC), strain MRSA 15-2",[2],8 µg/mL
same,"Anti-bacterial activity (MIC), strain MRSA 15-3",[2],2 µg/mL
same,"Anti-bacterial activity (MIC), strain MRSA 15-4",[2],8 µg/mL
same,"Anti-bacterial activity (MIC), strain EFM 15-1",[3],> 32 µg/mL
same,"Anti-bacterial activity (MIC), strain EFM 15-2",[3],> 32 µg/mL
same,"Anti-bacterial activity (MIC), strain EFM 15-3",[3],> 32 µg/mL
same,"Anti-bacterial activity (MIC), strain EFM 15-4",[3],> 32 µg/mL
same,"Anti-bacterial activity (MIC), strain EFM 15-5",[3],1 µg/mL
same,"Anti-bacterial activity (MIC), strain EFM 15-6",[3],8 µg/mL
same,"Anti-bacterial activity (MIC), strain EFA 15-1",[4],> 32 µg/mL
same,"Anti-bacterial activity (MIC), strain EFA 15-2",[4],> 32 µg/mL
same,"Anti-bacterial activity (MIC), strain EFA 15-3",[4],> 32 µg/mL
same,"Anti-bacterial activity (MIC), strain EFA 15-4",[4],> 32 µg/mL
same,"Anti-bacterial activity (MIC), strain EFA 15-5",[4],> 32 µg/mL
same,"Anti-bacterial activity (MIC), strain EFA 15-6",[4],> 32 µg/mL
same,"Anti-bacterial activity (MIC), strain EFA 15-9",[4],32 µg/mL
same,"Anti-bacterial activity (MIC), strain MSSA 15-3",[5],8 µg/mL
same,"Anti-bacterial activity (MIC), strain MSSA 15-4",[5],8 µg/mL
same,"Anti-bacterial activity (MIC), strain MSSA 15-5",[5],8 µg/mL
same,"Anti-bacterial activity (MIC), strain MSSA 15-6",[5],> 32 µg/mL
same,"Anti-bacterial activity (MIC), strain MRSE 15-1",[6],8 µg/mL
same,"Anti-bacterial activity (MIC), strain MRSE 15-2",[6],8 µg/mL
same,"Anti-bacterial activity (MIC), strain MRSE 15-3",[6],8 µg/mL
same,"Anti-bacterial activity (MIC), strain MRSE 15-7",[6],8 µg/mL
same,"Anti-bacterial activity (MIC), strain BCA 14-1",[7],> 32 µg/mL
same,"Anti-bacterial activity (MIC), strain BCA 14-4",[7],> 32 µg/mL
same,"Anti-bacterial activity (MIC), strain BCA 14-5",[7],8 µg/mL
same,"Anti-bacterial activity (MIC), strain BCA 14-6",[7],> 32 µg/mL
same,"Anti-bacterial activity (MIC), strain BCA 14-7",[7],16 µg/mL
same,"Anti-bacterial activity (MIC), strain BCA 14-8",[7],16 µg/mL
same,"Anti-bacterial activity (MIC), strain BCA 14-10",[7],> 32 µg/mL
same,"Anti-bacterial activity (MIC), strain SPN 16-2",[8],8 µg/mL
same,"Anti-bacterial activity (MIC), strain SPN 16-4",[8],8 µg/mL
same,"Anti-bacterial activity (MIC), strain MSSE 15-3",[9],8 µg/mL
same,"Anti-bacterial activity (MIC), strain MSSE 15-4",[9],32 µg/mL
same,"Anti-bacterial activity (MIC), strain MSSE 15-5",[9],8 µg/mL
same,"Anti-bacterial activity (MIC), strain MSSE 15-6",[9],8 µg/mL
same,inhibition at 30 µM,[10],20%
